Assay results published in the CheMixHub viscosity set.
Several values for one entry are separate records, joined by “and”; a condition that tells them apart may be missing. Equal values may be shown once.

Assay: xn = mol fraction of the nth substance listed

CC[NH+](C)CC.[Br-] + O
viscosity [mPa·s], 100 kPa
Settings | 298.15 K | 303.15 K | 308.15 K | 313.15 K | 318.15 K | 323.15 K
x1 = 0.016 | 1.149 | 1.026 | 0.925 | 0.841 | 0.771 | 0.712
x1 = 0.0229 | 1.243 | 1.107 | 0.996 | 0.903 | 0.825 | 0.759
x1 = 0.0355 | 1.458 | 1.295 | 1.162 | 1.051 | 0.955 | 0.873
x1 = 0.0793 | 2.422 | 2.124 | 1.882 | 1.681 | 1.513 | 1.368
x1 = 0.0986 | 3.011 | 2.633 | 2.318 | 2.061 | 1.843 | 1.658
x1 = 0.1267 | 4.05 | 3.504 | 3.07 | 2.707 | 2.389 | 2.142
x1 = 0.1508 | 5.154 | 4.438 | 3.862 | 3.379 | 2.988 | 2.658
x1 = 0.1806 | 6.655 | 5.646 | 4.861 | 4.22 | 3.695 | 3.267
x1 = 0.2148 | 9.109 | 7.787 | 6.643 | 5.74 | 5.002 | 4.39
x1 = 0.2422 | 11.37 | 9.636 | 8.251 | 7.129 | 6.196 | 5.432
x1 = 0.2866 | 15.38 | 12.8 | 10.79 | 9.194 | 7.919 | 6.897
x1 = 0.3332 | 21.46 | 17.54 | 14.61 | 12.29 | 10.49 | 9.032
x1 = 0.4014 | 33.72 | 26.93 | 21.98 | 18.17 | 15.2 | 12.89

Oc1cccc(Cl)c1 + CCCCCOC(C)=O
Settings | viscosity [mPa·s]
298.15 K, 101 kPa, x1 = 0.5 | 1.244

CCCCNCCO + O
100 kPa, x2 = 0.62
Settings | viscosity [mPa·s]
293.15 K | 29
303.15 K | 16.7
313.15 K | 10.3
323.15 K | 6.73

CNC=O + O=C1CCCCC1
viscosity [mPa·s], 101 kPa
Settings | x1 = 0.0868 | x1 = 0.1762 | x1 = 0.2682 | x1 = 0.3632 | x1 = 0.461 | x1 = 0.562 | x1 = 0.6662 | x1 = 0.7738 | x1 = 0.885
303.15 K | 1.804 | 1.786 | 1.762 | 1.739 | 1.714 | 1.693 | 1.668 | 1.646 | 1.618
308.15 K | 1.645 | 1.63 | 1.61 | 1.592 | 1.57 | 1.553 | 1.532 | 1.513 | 1.49
313.15 K | 1.472 | 1.463 | 1.451 | 1.439 | 1.425 | 1.413 | 1.4 | 1.387 | 1.371
318.15 K | 1.284 | 1.284 | 1.283 | 1.281 | 1.278 | 1.275 | 1.271 | 1.267 | 1.262

O=C(Cc1ccccc1)Cc1ccccc1 + CCCCCOC(C)=O
298.15 K, 101 kPa
Settings | viscosity [mPa·s]
x1 = 0.0269 | 0.8322
x1 = 0.0305 | 0.8358

CCOC(=O)CCl + OCc1ccccc1
viscosity [mPa·s], 101.3 kPa
Settings | x1 = 0.1072 | x1 = 0.2035 | x1 = 0.2998 | x1 = 0.395 | x1 = 0.5 | x1 = 0.5984 | x1 = 0.6981 | x1 = 0.7972 | x1 = 0.8941
298.15 K | 4.078 | 3.295 | 2.729 | 2.285 | 1.923 | 1.669 | 1.459 | 1.326 | 1.188
303.15 K | 3.567 | 2.887 | 2.428 | 2.036 | 1.747 | 1.516 | 1.334 | 1.209 | 1.092
308.15 K | 3.058 | 2.48 | 2.127 | 1.815 | 1.572 | 1.365 | 1.209 | 1.093 | 0.997

CNC=O + CC(O)CO
viscosity [mPa·s], 101 kPa
Settings | x1 = 0.0968 | x1 = 0.1216 | x1 = 0.2366 | x1 = 0.347 | x1 = 0.4526 | x1 = 0.5534 | x1 = 0.6498 | x1 = 0.7432 | x1 = 0.832 | x1 = 0.917
293.15 K | 39.02 | 36.25 | 22.68 | 14.7 | 9.934 | 6.941 | 5.057 | 3.792 | 2.933 | 2.349
303.15 K | 22.78 | 21.44 | 14.24 | 9.752 | 6.915 | 5.053 | 3.822 | 2.965 | 2.363 | 1.935
313.15 K | 14.24 | 13.56 | 9.479 | 6.811 | 5.034 | 3.819 | 2.986 | 2.381 | 1.949 | 1.631
323.15 K | 9.382 | 9.048 | 6.609 | 4.951 | 3.793 | 2.97 | 2.388 | 1.957 | 1.635 | 1.397

CCOC(=O)CCl + Cc1ccc(C)cc1
viscosity [mPa·s], 101.3 kPa
Settings | x1 = 0.0994 | x1 = 0.1995 | x1 = 0.3008 | x1 = 0.3992 | x1 = 0.5001 | x1 = 0.601 | x1 = 0.6994 | x1 = 0.7968 | x1 = 0.8943
298.15 K | 0.635 | 0.663 | 0.699 | 0.735 | 0.783 | 0.832 | 0.886 | 0.949 | 1.017
303.15 K | 0.599 | 0.624 | 0.656 | 0.691 | 0.734 | 0.778 | 0.827 | 0.882 | 0.945
308.15 K | 0.563 | 0.586 | 0.615 | 0.646 | 0.686 | 0.726 | 0.768 | 0.816 | 0.874

Oc1cccc(Cl)c1 + CCO
Settings | viscosity [mPa·s]
298.15 K, 101 kPa, x1 = 0.5 | 1.45

COC(=O)c1ccccc1 + COc1ccccc1
viscosity [mPa·s], 100 kPa
Settings | x1 = 0.0898 | x1 = 0.1468 | x1 = 0.228 | x1 = 0.3145 | x1 = 0.4054 | x1 = 0.5056 | x1 = 0.6161 | x1 = 0.7316 | x1 = 0.8597
303.15 K | 0.974 | 1.038 | 1.101 | 1.187 | 1.234 | 1.307 | 1.391 | 1.48 | 1.572
308.15 K | 0.894 | 0.949 | 1.007 | 1.086 | 1.129 | 1.195 | 1.272 | 1.355 | 1.439
313.15 K | 0.8 | 0.85 | 0.902 | 0.972 | 1.012 | 1.074 | 1.144 | 1.22 | 1.301

CCNCCO + CCOCCOCCOCC
viscosity, 101.3 kPa
Settings | x1 = 0.313 | x1 = 0.548 | x1 = 0.732 | x1 = 0.879 | x2 = 0.1906 | x2 = 0.3546 | x2 = 0.5618
293.15 K | 1.74 mPa·s | 2.601 mPa·s and 2.603 mPa·s | 4.275 mPa·s | 7.482 mPa·s | 5.481 mPa·s | 3.2 mPa·s | 2.028 mPa·s
303.15 K | 1.397 mPa·s | 2.007 mPa·s and 2.027 mPa·s | 3.137 mPa·s | 5.176 mPa·s | 3.902 mPa·s | 2.422 mPa·s | 1.604 mPa·s
313.15 K | 1.14 mPa·s | 1.584 mPa·s and 1.616 mPa·s | 2.372 mPa·s | 3.717 mPa·s | 2.88 mPa·s | 1.867 mPa·s | 1.291 mPa·s
323.15 K | 0.9463 mPa·s | 1.276 mPa·s and 1.317 mPa·s | 1.844 mPa·s | 2.764 mPa·s | 2.189 mPa·s | 1.478 mPa·s | 1.056 mPa·s

CCNCCO + CN(C)CCO
viscosity [mPa·s], 101.3 kPa
Settings | x1 = 0.0999 | x1 = 0.2001 | x1 = 0.3 | x1 = 0.4 | x1 = 0.4998 | x1 = 0.6001 | x1 = 0.7 | x1 = 0.8002 | x1 = 0.9
293.15 K | 3.88 | 4.63 | 5.5 | 6.48 | 7.55 | 8.66 | 9.82 | 10.97 | 12.14
303.15 K | 2.92 | 3.31 | 3.85 | 4.47 | 5.17 | 5.88 | 6.63 | 7.39 | 8.16
313.15 K | 2.18 | 2.42 | 2.8 | 3.22 | 3.71 | 4.24 | 4.78 | 5.32 | 5.84
323.15 K | 1.79 | 1.95 | 2.15 | 2.39 | 2.68 | 2.98 | 3.3 | 3.62 | 3.93

CCCCCCCCN(CCCCCCCC)CCCCCCCC + CCCCCCO
Settings | viscosity [mPa·s]
298 K, 101.3 kPa, x1 = 0.00638 | 4.722

COC(=O)c1ccccc1 + C1COCCO1
viscosity [mPa·s], 100 kPa
Settings | x1 = 0.0898 | x1 = 0.1468 | x1 = 0.228 | x1 = 0.3145 | x1 = 0.4054 | x1 = 0.5056 | x1 = 0.6161 | x1 = 0.7316 | x1 = 0.8597
303.15 K | 1.13 | 1.157 | 1.198 | 1.244 | 1.293 | 1.352 | 1.418 | 1.491 | 1.573
308.15 K | 1.038 | 1.066 | 1.106 | 1.147 | 1.192 | 1.246 | 1.308 | 1.376 | 1.449
313.15 K | 0.984 | 1.006 | 1.04 | 1.075 | 1.11 | 1.157 | 1.208 | 1.263 | 1.324
